# Test results published in PMC7150891, “Mertansine Inhibits mRNA Expression and Enzyme Activities of Cytochrome P450s and Uridine 5′-Diphospho-Glucuronosyltransferases in Human Hepatocytes and Liver Microsomes” (Pharmaceutics, 2020).
# Entries after “also recorded” stand apart in the source; their conditions may differ.
# Columns and labels:
# UGT1A3 = target: T1, UGT1A3 (Homo sapiens, UniProt P35503); experiment: Inhibition of UGT1A3-catalyzed chenodeoxycholic acid 24-acyl-β-glucuronidation in ultrapooled human liver microsomes; assay type: in vitro ADME
# T1 construct: ultrapooled human liver microsomes (0.2 mg/mL); from tissue; host or cells: human liver microsomes (ultrapooled)
# T1 sequence (P35503 29-534): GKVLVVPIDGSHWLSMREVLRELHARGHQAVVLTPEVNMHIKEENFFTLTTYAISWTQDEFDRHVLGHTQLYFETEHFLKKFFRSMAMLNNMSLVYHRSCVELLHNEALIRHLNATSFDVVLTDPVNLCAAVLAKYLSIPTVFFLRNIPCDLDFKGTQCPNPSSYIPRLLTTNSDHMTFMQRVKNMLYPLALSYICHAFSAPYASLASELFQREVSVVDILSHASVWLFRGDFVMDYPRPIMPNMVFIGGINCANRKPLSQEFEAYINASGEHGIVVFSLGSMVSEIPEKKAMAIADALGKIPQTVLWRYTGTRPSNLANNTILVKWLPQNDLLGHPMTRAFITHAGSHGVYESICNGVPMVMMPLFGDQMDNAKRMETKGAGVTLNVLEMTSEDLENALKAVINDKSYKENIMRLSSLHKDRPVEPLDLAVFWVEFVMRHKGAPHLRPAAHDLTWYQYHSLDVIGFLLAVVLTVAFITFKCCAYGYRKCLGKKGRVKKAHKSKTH
# Method: The inhibitory potential of mertansine on UGT1A1, UGT1A3, UGT1A4, UGT1A6, UGT1A9, and UGT2B7 activities was evaluated using liquid chromatography–tandem mass spectrometry (LC-MS/MS) with a cocktail of UGT substrates and ultrapooled human liver microsomes. Each incubation mixture was prepared to a final volume of 100 μL as follows: ultrapooled human liver microsomes (0.2 mg/mL), 5 mM UDPGA, 10 mM magnesium chloride, alamethicin (25 μg/mL), 50 mM Tris buffer (pH 7.4), various concentrations of mertansine in methanol (final concentrations of 0.01–50 μM), and the cocktail sets of UGT enzyme-specific substrates. Two cocktail sets were used: set A contained 0.5 μM SN-38 for UGT1A1, 2 μM chenodeoxycholic acid for UGT1A3, and 0.5 μM trifluoperazine for UGT1A4; and set B contained 1 μM N-acetylserotonin for UGT1A6, 0.2 μM mycophenolic acid for UGT1A9, and 1 μM naloxone for UGT2B7. The reactions were initiated by adding UDPGA and incubated in a shaking water bath for 60 min at 37 °C. […] Next, 50 μL of each supernatant of sets A and B was mixed, and aliquots (5 μL) were analyzed using LC-MS/MS. […]
# The LC-MS/MS system was comprised of an Agilent 6495 triple quadrupole mass spectrometer coupled with an Agilent 1290 Infinity system (Agilent Technologies, Wilmington, DE, USA). […] The electrospray ionization (ESI) source settings in both positive and negative ion modes were as follows: gas temperature, 200 °C; gas flow, 14 L/min; nebulizer, 40 psi; sheath gas temperature, 380 °C; sheath gas flow, 11 L/min; capillary voltage, 4500 V; and nozzle voltage, 500 V. Each metabolite was quantified via selected reaction monitoring in the negative ion mode (chenodeoxycholic acid 24-acyl-β-glucuronide, m/z 567.1 to 391.2; mycophenolic acid β-D-glucuronide, m/z 495.0 to 319.0; propofol glucuronide (IS), m/z 353.0 to 177.0) and in the positive ion mode (SN-38 glucuronide, m/z 568.9 to 392.9; trifluoperazine N-β-D-glucuronide, m/z 583.9 to 407.9; N-acetylserotonin β-D-glucuronide, m/z 394.0 to 219.0; naloxone 3-β-D-glucuronide, m/z 503.9 to 309.9; meloxicam (IS), m/z 351.9 to 115.0). […]
# [1] = test system: CYP2B6 mRNA (suppression of expression); experiment: CYP2B6 mRNA level in human hepatocytes after 48 h treatment (RT-PCR); assay type: cell-based; settings: 1.25–2500 nM
# Excerpt: 12.5 (Systat Software, Inc.; San Jose, CA, USA). […] 1.1 (Systat Software, Inc.).
smiles,measurement,setting,value
"COc1cc2cc(c1Cl)N(C)C(=O)CC(OC(=O)C(C)N(C)C(=O)CCS)C1(C)OC1C(C)C1CC(O)(NC(=O)O1)C(OC)C=CC=C(C)C2 (stereo not drawn) [mertansine, Mertansine]","Inhibition Mode, UGT1A3","UGT1A3; human liver microsomes, Dixon plot",competitively inhibited; also recorded: competitive inhibitor
same,Ki,"UGT1A3; human liver microsomes, chenodeoxycholic acid 0.5–5 µM",4300 nM
same,IC50,"UGT1A3; ultrapooled human liver microsomes, 2 µM chenodeoxycholic acid (cocktail)",6400 nM
same,IC50 at 48 h,"[1]; human hepatocytes Lot 319, 48 h",25 nM
same,IC50 at 48 h,"[1]; human hepatocytes Lot 321, 48 h",57.8 nM
same,IC50 at 48 h,"[1]; human hepatocytes Lot 361, 48 h",27.6 nM
